We go through 6 compounds from patent US12492173B2, “Herbicidal substituted N-tetrazolyl aryl carboxamides” (Bayer Aktiengesellschaft, priority 2019, dated 2025).

Molecules are shown by their SMILES.

One assay concerns Alopecurus myosuroides. The experiment in a line: Pre-emergence herbicidal action, ALOMY. In kind it is in vivo. More on the design: key: % activity: 100 = plants have died, 0 = like control plants. The settings on record: comparative experiment. The source says: 1. Pre-Emergence Herbicidal Action Against Harmful Plants Seeds of monocotyledonous and dicotyledonous weed plants and crop plants are laid out in sandy loam soil in wood-fiber pots and covered with soil. The compounds of the invention, formulated in the form of wettable powders (WP) or as emulsion concentrates (EC), are then applied to the surface of the covering soil in the form of an aqueous suspension or emulsion at a water application rate equating to 600 to 800 l/ha, with addition of 0.2% wetting agent. After the treatment, the pots are placed in a greenhouse and kept under good growth conditions for the trial plants. The damage to the test plants is scored visually after a test period of 3 weeks by comparison with untreated controls (herbicidal activity in percent (%): 100% activity=the plants have died, 0% activity=like control plants). […] The tables below illustrate, in an exemplary manner, the […] herbicidal action of the compounds according to the invention, the herbicidal activity being stated in percent. [table] In the experiments that follow, herbicidal action of numerous inventive compounds and the known compounds that are structurally closest from D1 (WO 2012/028579 A1) and D2 (WO 2018/202535 A1) were compared under the above-specified conditions by the pre-emergence and post-emergence method. The example numbers given in the tables relate to the compounds disclosed in the respective documents. In addition to the compounds disclosed in D1 and D2, the following compounds V-1 to V-14 that are encompassed by D1 or D2 but are not compounds specified therein were used in the comparative experiments: • V-1: 2-(methylsulfanyl)-3-(methylsulfinyl)-N-(1-methyl-1H-tetrazol-5-yl)-4-(trifluoromethyl)benzamide • V-2: 2-(methylsulfanyl)-3-(methylsulfonyl)-N-(1-methyl-1H-tetrazol-5-yl)-4-(trifluoromethyl)benzamide • V-3: 2,3-bis(ethylsulfanyl)-N-(1-methyl-1H-tetrazol-5-yl)-4-(trifluoromethyl)benzamide • V-4: 2-chloro-3-(ethylsulfanyl)-N-(1-methyl-1H-tetrazol-5-yl)-4-(trifluoromethyl)benzamide • V-5: 2-chloro-4-iodo-3-(methylsulfanyl)-N-(1-methyl-1H-tetrazol-5-yl)benzamide • V-6: 2-chloro-4-iodo-3-(methylsulfinyl)-N-(1-methyl-1H-tetrazol-5-yl)benzamide • V-7: 2-chloro-4-iodo-3-(methylsulfonyl)-N-(1-methyl-1H-tetrazol-5-yl)benzamide • V-8: 2-bromo-3-(methylsulfanyl)-N-(1-methyl-1H-tetrazol-5-yl)-4-(trifluoromethyl)benzamide • V-9: 2-bromo-3-(methylsulfinyl)-N-(1-methyl-1H-tetrazol-5-yl)-4-(trifluoromethyl)benzamide • V-10: 2-bromo-3-(methylsulfonyl)-N-(1-methyl-1H-tetrazol-5-yl)-4-(trifluoromethyl)benzamide • V-11: 2-bromo-3-(ethylsulfanyl)-N-(1-methyl-1H-tetrazol-5-yl)-4-(trifluoromethyl)benzamide • V-12: 2-bromo-3-(ethylsulfinyl)-N-(1-methyl-1H-tetrazol-5-yl)-4-(trifluoromethyl)benzamide • V-13: 2-bromo-3-(ethylsulfonyl)-N-(1-methyl-1-1H-tetrazol-5-yl)-4-(trifluoromethyl)benzamide • V-14: 2-cyclopropyl-3-(ethylsulfanyl)-N-(1-methyl-1H-tetrazol-5-yl)-4-(trifluoromethyl)benzamide Herbicidal Pre-Emergence Action: […]

In a further assay the test system is Avena fatua. The experiment in a line: Pre-emergence herbicidal action, AVEFA. In kind it is in vivo. The settings on record: comparative experiment, 20 g of a.i./ha. The source says:
1. Pre-Emergence Herbicidal Action Against Harmful Plants Seeds of monocotyledonous and dicotyledonous weed plants and crop plants are laid out in sandy loam soil in wood-fiber pots and covered with soil. The compounds of the invention, formulated in the form of wettable powders (WP) or as emulsion concentrates (EC), are then applied to the surface of the covering soil in the form of an aqueous suspension or emulsion at a water application rate equating to 600 to 800 l/ha, with addition of 0.2% wetting agent. After the treatment, the pots are placed in a greenhouse and kept under good growth conditions for the trial plants. The damage to the test plants is scored visually after a test period of 3 weeks by comparison with untreated controls (herbicidal activity in percent (%): 100% activity=the plants have died, 0% activity=like control plants). […] The tables below illustrate, in an exemplary manner, the post-emergence herbicidal action of the compounds according to the invention, the herbicidal activity being stated in percent. [table] In the experiments that follow, herbicidal action of numerous inventive compounds and the known compounds that are structurally closest from D1 (WO 2012/028579 A1) and D2 (WO 2018/202535 A1) were compared under the above-specified conditions by the pre-emergence and post-emergence method. […]

`Cn1nnnc1NC(=O)c1ccc(I)c(C[S+](C)[O-])c1Cl` (racemic) [Example 1-363]: the “Herbicidal action against ALOMY” value with Alopecurus myosuroides (20 g of a.i./ha) worked out at 50. For `CC[S+]([O-])Cc1c(C(F)(F)F)ccc(C(=O)Nc2nnnn2C)c1Br` (racemic) [Example 1-384], in the assay with Alopecurus myosuroides (80 g of a.i./ha), the “Herbicidal action against ALOMY” value is 100. For the compound `CCSCc1c(C(F)(F)F)ccc(C(=O)Nc2nnnn2C)c1Cl` [Example 1-299], in the assay on Alopecurus myosuroides (20 g of a.i./ha), the “Herbicidal action against ALOMY” value is listed as 80. In the case of `CSCc1c(C(F)F)ccc(C(=O)Nc2nnnn2C)c1Cl` [Example 1-320], the “Herbicidal action against AVEFA” value with Avena fatua is 70. With `CCS(=O)(=O)Cc1c(C(F)(F)F)ccc(C(=O)Nc2nnnn2C)c1Br` [Example 1-385], the “Herbicidal action against ALOMY” value with Alopecurus myosuroides (80 g of a.i./ha) was 100. For `CCS(=O)(=O)c1c(C(F)(F)F)ccc(C(=O)Nc2nnnn2C)c1Br` [Example V-13, 2-bromo-3-(ethylsulfonyl)-N-(1-methyl-1-1H-tetrazol-5-yl)-4-(trifluoromethyl)benzamide, reference compound], the “Herbicidal action against ALOMY” value with Alopecurus myosuroides (80 g of a.i./ha) amounted to 0.
